# Laboratory results reported in ChEMBL document CHEMBL5303573, “Mapping human microbiome drug metabolism by gut bacteria and their genes” (Nature, 2019).
# Experiment: The drug is tested on Bifidobacterium breve strain: DSM20213 for biotransformation. The drug concentrations were measured before and after a 12-h incubation by liquid-chromatography-coupled mass spectrometry (LC–MS)
# Settings: 2 µM
row,SMILES,Bacterial Biotransformation
1,COCCc1ccc(OCC(O)CNC(C)C)cc1.COCCc1ccc(OCC(O)CNC(C)C)cc1.O=C(O)C(O)C(O)C(=O)O (stereo not drawn) [METOPROLOL TARTRATE],Compound NOT metabolized
2,CN1CCC(=C2c3ccccc3CC(=O)c3sccc32)CC1.O=C(O)/C=C/C(=O)O [KETOTIFEN FUMARATE],Compound NOT metabolized
3,CC1Cc2ccccc2N1NC(=O)c1ccc(Cl)c(S(N)(=O)=O)c1 (stereo not drawn) [INDAPAMIDE],Compound NOT metabolized
4,Cc1cc2c(s1)Nc1ccccc1N=C2N1CCN(C)CC1 [OLANZAPINE],Compound NOT metabolized

# Experiment: The drug is tested on Bacteroides caccae strain: ATCC43185 for biotransformation. The drug concentrations were measured before and after a 12-h incubation by liquid-chromatography-coupled mass spectrometry (LC–MS)
# Settings: 2 µM
row,SMILES,Bacterial Biotransformation
1,COCCc1ccc(OCC(O)CNC(C)C)cc1.COCCc1ccc(OCC(O)CNC(C)C)cc1.O=C(O)C(O)C(O)C(=O)O (stereo not drawn) [METOPROLOL TARTRATE],Compound NOT metabolized
2,CN1CCC(=C2c3ccccc3CC(=O)c3sccc32)CC1.O=C(O)/C=C/C(=O)O [KETOTIFEN FUMARATE],Compound NOT metabolized
3,CC1Cc2ccccc2N1NC(=O)c1ccc(Cl)c(S(N)(=O)=O)c1 (stereo not drawn) [INDAPAMIDE],Compound NOT metabolized
4,Cc1cc2c(s1)Nc1ccccc1N=C2N1CCN(C)CC1 [OLANZAPINE],Compound NOT metabolized

# Experiment: The drug is tested on Bacteroides vulgatus strain: ATCC8482 for biotransformation. The drug concentrations were measured before and after a 12-h incubation by liquid-chromatography-coupled mass spectrometry (LC–MS)
# Settings: phocaeicola vulgatus, 2 µM
row,SMILES,Bacterial Biotransformation
1,COCCc1ccc(OCC(O)CNC(C)C)cc1.COCCc1ccc(OCC(O)CNC(C)C)cc1.O=C(O)C(O)C(O)C(=O)O (stereo not drawn) [METOPROLOL TARTRATE],Compound NOT metabolized
2,CC1Cc2ccccc2N1NC(=O)c1ccc(Cl)c(S(N)(=O)=O)c1 (stereo not drawn) [INDAPAMIDE],Compound NOT metabolized
3,Cc1cc2c(s1)Nc1ccccc1N=C2N1CCN(C)CC1 [OLANZAPINE],Compound NOT metabolized

# Experiment: The drug is tested on Odoribacter splanchnicus strain: fecal isolate for biotransformation. The drug concentrations were measured before and after a 12-h incubation by liquid-chromatography-coupled mass spectrometry (LC–MS)
# Settings: 2 µM
row,SMILES,Bacterial Biotransformation
1,COCCc1ccc(OCC(O)CNC(C)C)cc1.COCCc1ccc(OCC(O)CNC(C)C)cc1.O=C(O)C(O)C(O)C(=O)O (stereo not drawn) [METOPROLOL TARTRATE],Compound NOT metabolized
2,CN1CCC(=C2c3ccccc3CC(=O)c3sccc32)CC1.O=C(O)/C=C/C(=O)O [KETOTIFEN FUMARATE],Compound NOT metabolized
3,CC1Cc2ccccc2N1NC(=O)c1ccc(Cl)c(S(N)(=O)=O)c1 (stereo not drawn) [INDAPAMIDE],Compound NOT metabolized
4,Cc1cc2c(s1)Nc1ccccc1N=C2N1CCN(C)CC1 [OLANZAPINE],Compound metabolized

# Experiment: The drug is tested on Blautia hansenii strain: DSM20583 for biotransformation. The drug concentrations were measured before and after a 12-h incubation by liquid-chromatography-coupled mass spectrometry (LC–MS)
# Settings: 2 µM
row,SMILES,Bacterial Biotransformation
1,CN1CCC(=C2c3ccccc3CC(=O)c3sccc32)CC1.O=C(O)/C=C/C(=O)O [KETOTIFEN FUMARATE],Compound NOT metabolized
2,CC1Cc2ccccc2N1NC(=O)c1ccc(Cl)c(S(N)(=O)=O)c1 (stereo not drawn) [INDAPAMIDE],Compound NOT metabolized

# Experiment: The drug is tested on Clostridium sp. strain: fecal isolate for biotransformation. The drug concentrations were measured before and after a 12-h incubation by liquid-chromatography-coupled mass spectrometry (LC–MS)
# Settings: 2 µM
row,SMILES,Bacterial Biotransformation
1,COCCc1ccc(OCC(O)CNC(C)C)cc1.COCCc1ccc(OCC(O)CNC(C)C)cc1.O=C(O)C(O)C(O)C(=O)O (stereo not drawn) [METOPROLOL TARTRATE],Compound NOT metabolized
2,CN1CCC(=C2c3ccccc3CC(=O)c3sccc32)CC1.O=C(O)/C=C/C(=O)O [KETOTIFEN FUMARATE],Compound NOT metabolized
3,CC1Cc2ccccc2N1NC(=O)c1ccc(Cl)c(S(N)(=O)=O)c1 (stereo not drawn) [INDAPAMIDE],Compound NOT metabolized

# Experiment: The drug is tested on Clostridium scindens strain: ATCC35704 for biotransformation. The drug concentrations were measured before and after a 12-h incubation by liquid-chromatography-coupled mass spectrometry (LC–MS)
# Settings: 2 µM
row,SMILES,Bacterial Biotransformation
1,COCCc1ccc(OCC(O)CNC(C)C)cc1.COCCc1ccc(OCC(O)CNC(C)C)cc1.O=C(O)C(O)C(O)C(=O)O (stereo not drawn) [METOPROLOL TARTRATE],Compound NOT metabolized
2,CN1CCC(=C2c3ccccc3CC(=O)c3sccc32)CC1.O=C(O)/C=C/C(=O)O [KETOTIFEN FUMARATE],Compound NOT metabolized
3,CC1Cc2ccccc2N1NC(=O)c1ccc(Cl)c(S(N)(=O)=O)c1 (stereo not drawn) [INDAPAMIDE],Compound NOT metabolized
4,Cc1cc2c(s1)Nc1ccccc1N=C2N1CCN(C)CC1 [OLANZAPINE],Compound NOT metabolized

# Experiment: The drug is tested on Clostridium sporogenes strain: ATCC15579 for biotransformation. The drug concentrations were measured before and after a 12-h incubation by liquid-chromatography-coupled mass spectrometry (LC–MS)
# Settings: 2 µM
row,SMILES,Bacterial Biotransformation
1,COCCc1ccc(OCC(O)CNC(C)C)cc1.COCCc1ccc(OCC(O)CNC(C)C)cc1.O=C(O)C(O)C(O)C(=O)O (stereo not drawn) [METOPROLOL TARTRATE],Compound NOT metabolized
2,CN1CCC(=C2c3ccccc3CC(=O)c3sccc32)CC1.O=C(O)/C=C/C(=O)O [KETOTIFEN FUMARATE],Compound NOT metabolized
3,CC1Cc2ccccc2N1NC(=O)c1ccc(Cl)c(S(N)(=O)=O)c1 (stereo not drawn) [INDAPAMIDE],Compound NOT metabolized
4,Cc1cc2c(s1)Nc1ccccc1N=C2N1CCN(C)CC1 [OLANZAPINE],Compound NOT metabolized

# Experiment: The drug is tested on Enterococcus faecalis strain: V583 for biotransformation. The drug concentrations were measured before and after a 12-h incubation by liquid-chromatography-coupled mass spectrometry (LC–MS)
# Settings: 2 µM
row,SMILES,Bacterial Biotransformation
1,COCCc1ccc(OCC(O)CNC(C)C)cc1.COCCc1ccc(OCC(O)CNC(C)C)cc1.O=C(O)C(O)C(O)C(=O)O (stereo not drawn) [METOPROLOL TARTRATE],Compound NOT metabolized
2,CN1CCC(=C2c3ccccc3CC(=O)c3sccc32)CC1.O=C(O)/C=C/C(=O)O [KETOTIFEN FUMARATE],Compound NOT metabolized
3,CC1Cc2ccccc2N1NC(=O)c1ccc(Cl)c(S(N)(=O)=O)c1 (stereo not drawn) [INDAPAMIDE],Compound NOT metabolized
4,Cc1cc2c(s1)Nc1ccccc1N=C2N1CCN(C)CC1 [OLANZAPINE],Compound NOT metabolized

# Experiment: The drug is tested on Ruminococcus lactaris strain: ATCC29176 for biotransformation. The drug concentrations were measured before and after a 12-h incubation by liquid-chromatography-coupled mass spectrometry (LC–MS)
# Settings: 2 µM
row,SMILES,Bacterial Biotransformation
1,COCCc1ccc(OCC(O)CNC(C)C)cc1.COCCc1ccc(OCC(O)CNC(C)C)cc1.O=C(O)C(O)C(O)C(=O)O (stereo not drawn) [METOPROLOL TARTRATE],Compound NOT metabolized
2,CN1CCC(=C2c3ccccc3CC(=O)c3sccc32)CC1.O=C(O)/C=C/C(=O)O [KETOTIFEN FUMARATE],Compound NOT metabolized
3,CC1Cc2ccccc2N1NC(=O)c1ccc(Cl)c(S(N)(=O)=O)c1 (stereo not drawn) [INDAPAMIDE],Compound NOT metabolized
4,Cc1cc2c(s1)Nc1ccccc1N=C2N1CCN(C)CC1 [OLANZAPINE],Compound NOT metabolized

# Experiment: The drug is tested on Escherichia coli strain: BW25113 for biotransformation. The drug concentrations were measured before and after a 12-h incubation by liquid-chromatography-coupled mass spectrometry (LC–MS)
# Settings: 2 µM
row,SMILES,Bacterial Biotransformation
1,COCCc1ccc(OCC(O)CNC(C)C)cc1.COCCc1ccc(OCC(O)CNC(C)C)cc1.O=C(O)C(O)C(O)C(=O)O (stereo not drawn) [METOPROLOL TARTRATE],Compound NOT metabolized
2,Cc1cc2c(s1)Nc1ccccc1N=C2N1CCN(C)CC1 [OLANZAPINE],Compound NOT metabolized

# Experiment: The drug is tested on Providencia rettgeri strain: DSM1131 for biotransformation. The drug concentrations were measured before and after a 12-h incubation by liquid-chromatography-coupled mass spectrometry (LC–MS)
# Format: ADME
# Set-up: dose 2 uM, timepoint 0 vs 12 hours
# Settings: 2 µM
row,SMILES,Bacterial Biotransformation
1,COCCc1ccc(OCC(O)CNC(C)C)cc1.COCCc1ccc(OCC(O)CNC(C)C)cc1.O=C(O)C(O)C(O)C(=O)O (stereo not drawn) [METOPROLOL TARTRATE],Compound NOT metabolized
2,CN1CCC(=C2c3ccccc3CC(=O)c3sccc32)CC1.O=C(O)/C=C/C(=O)O [KETOTIFEN FUMARATE],Compound NOT metabolized
3,CC1Cc2ccccc2N1NC(=O)c1ccc(Cl)c(S(N)(=O)=O)c1 (stereo not drawn) [INDAPAMIDE],Compound NOT metabolized
4,Cc1cc2c(s1)Nc1ccccc1N=C2N1CCN(C)CC1 [OLANZAPINE],Compound NOT metabolized

# Settings: bifidobacterium adolescentis, 12 h, 2 µM
# Description: The drug is tested on Bifidobacterium adolescentis strain: ATCC 15703 for biotransformation. The drug concentrations were measured before and after a 12-h incubation by liquid-chromatography-coupled mass spectrometry (LC–MS)
row,SMILES,Bacterial Biotransformation
1,COCCc1ccc(OCC(O)CNC(C)C)cc1.COCCc1ccc(OCC(O)CNC(C)C)cc1.O=C(O)C(O)C(O)C(=O)O (stereo not drawn) [METOPROLOL TARTRATE],Compound NOT metabolized
2,CN1CCC(=C2c3ccccc3CC(=O)c3sccc32)CC1.O=C(O)/C=C/C(=O)O [KETOTIFEN FUMARATE],Compound NOT metabolized
3,CC1Cc2ccccc2N1NC(=O)c1ccc(Cl)c(S(N)(=O)=O)c1 (stereo not drawn) [INDAPAMIDE],Compound NOT metabolized
4,Cc1cc2c(s1)Nc1ccccc1N=C2N1CCN(C)CC1 [OLANZAPINE],Compound NOT metabolized

# Settings: bacteroides fragilis, 12 h, 2 µM
# Description: The drug is tested on Bacteroides fragilis strain: 3397 (T10) for biotransformation. The drug concentrations were measured before and after a 12-h incubation by liquid-chromatography-coupled mass spectrometry (LC–MS)
row,SMILES,Bacterial Biotransformation
1,COCCc1ccc(OCC(O)CNC(C)C)cc1.COCCc1ccc(OCC(O)CNC(C)C)cc1.O=C(O)C(O)C(O)C(=O)O (stereo not drawn) [METOPROLOL TARTRATE],Compound NOT metabolized
2,CN1CCC(=C2c3ccccc3CC(=O)c3sccc32)CC1.O=C(O)/C=C/C(=O)O [KETOTIFEN FUMARATE],Compound NOT metabolized
3,CC1Cc2ccccc2N1NC(=O)c1ccc(Cl)c(S(N)(=O)=O)c1 (stereo not drawn) [INDAPAMIDE],Compound NOT metabolized
4,Cc1cc2c(s1)Nc1ccccc1N=C2N1CCN(C)CC1 [OLANZAPINE],Compound metabolized

# Settings: bacteroides thetaiotaomicron, 12 h, 2 µM
# Description: The drug is tested on Bacteroides thetaiotaomicron strain: VPI-5482 for biotransformation. The drug concentrations were measured before and after a 12-h incubation by liquid-chromatography-coupled mass spectrometry (LC–MS)
row,SMILES,Bacterial Biotransformation
1,COCCc1ccc(OCC(O)CNC(C)C)cc1.COCCc1ccc(OCC(O)CNC(C)C)cc1.O=C(O)C(O)C(O)C(=O)O (stereo not drawn) [METOPROLOL TARTRATE],Compound NOT metabolized
2,CN1CCC(=C2c3ccccc3CC(=O)c3sccc32)CC1.O=C(O)/C=C/C(=O)O [KETOTIFEN FUMARATE],Compound NOT metabolized
3,CC1Cc2ccccc2N1NC(=O)c1ccc(Cl)c(S(N)(=O)=O)c1 (stereo not drawn) [INDAPAMIDE],Compound NOT metabolized

# Settings: parabacteroides distasonis, 12 h, 2 µM
# Description: The drug is tested on Parabacteroides distasonis strain: ATCC8503 for biotransformation. The drug concentrations were measured before and after a 12-h incubation by liquid-chromatography-coupled mass spectrometry (LC–MS)
row,SMILES,Bacterial Biotransformation
1,COCCc1ccc(OCC(O)CNC(C)C)cc1.COCCc1ccc(OCC(O)CNC(C)C)cc1.O=C(O)C(O)C(O)C(=O)O (stereo not drawn) [METOPROLOL TARTRATE],Compound NOT metabolized
2,CN1CCC(=C2c3ccccc3CC(=O)c3sccc32)CC1.O=C(O)/C=C/C(=O)O [KETOTIFEN FUMARATE],Compound NOT metabolized
3,CC1Cc2ccccc2N1NC(=O)c1ccc(Cl)c(S(N)(=O)=O)c1 (stereo not drawn) [INDAPAMIDE],Compound NOT metabolized
4,Cc1cc2c(s1)Nc1ccccc1N=C2N1CCN(C)CC1 [OLANZAPINE],Compound NOT metabolized

# Settings: parabacteroides johnsonii, 12 h, 2 µM
# Description: The drug is tested on Parabacteroides johnsonii strain: DSM18315 for biotransformation. The drug concentrations were measured before and after a 12-h incubation by liquid-chromatography-coupled mass spectrometry (LC–MS)
row,SMILES,Bacterial Biotransformation
1,COCCc1ccc(OCC(O)CNC(C)C)cc1.COCCc1ccc(OCC(O)CNC(C)C)cc1.O=C(O)C(O)C(O)C(=O)O (stereo not drawn) [METOPROLOL TARTRATE],Compound NOT metabolized
2,CN1CCC(=C2c3ccccc3CC(=O)c3sccc32)CC1.O=C(O)/C=C/C(=O)O [KETOTIFEN FUMARATE],Compound NOT metabolized
3,CC1Cc2ccccc2N1NC(=O)c1ccc(Cl)c(S(N)(=O)=O)c1 (stereo not drawn) [INDAPAMIDE],Compound NOT metabolized
4,Cc1cc2c(s1)Nc1ccccc1N=C2N1CCN(C)CC1 [OLANZAPINE],Compound NOT metabolized

# Settings: segatella copri, 12 h, 2 µM
# Description: The drug is tested on Prevotella copri strain: DSM18205 for biotransformation. The drug concentrations were measured before and after a 12-h incubation by liquid-chromatography-coupled mass spectrometry (LC–MS)
row,SMILES,Bacterial Biotransformation
1,CN1CCC(=C2c3ccccc3CC(=O)c3sccc32)CC1.O=C(O)/C=C/C(=O)O [KETOTIFEN FUMARATE],Compound NOT metabolized
2,CC1Cc2ccccc2N1NC(=O)c1ccc(Cl)c(S(N)(=O)=O)c1 (stereo not drawn) [INDAPAMIDE],Compound NOT metabolized
3,Cc1cc2c(s1)Nc1ccccc1N=C2N1CCN(C)CC1 [OLANZAPINE],Compound NOT metabolized

# Settings: anaerostipes sp., 12 h, 2 µM
# Description: The drug is tested on Anaerostipes sp. strain: fecal isolate for biotransformation. The drug concentrations were measured before and after a 12-h incubation by liquid-chromatography-coupled mass spectrometry (LC–MS)
row,SMILES,Bacterial Biotransformation
1,COCCc1ccc(OCC(O)CNC(C)C)cc1.COCCc1ccc(OCC(O)CNC(C)C)cc1.O=C(O)C(O)C(O)C(=O)O (stereo not drawn) [METOPROLOL TARTRATE],Compound NOT metabolized
2,CN1CCC(=C2c3ccccc3CC(=O)c3sccc32)CC1.O=C(O)/C=C/C(=O)O [KETOTIFEN FUMARATE],Compound NOT metabolized
3,CC1Cc2ccccc2N1NC(=O)c1ccc(Cl)c(S(N)(=O)=O)c1 (stereo not drawn) [INDAPAMIDE],Compound NOT metabolized
4,Cc1cc2c(s1)Nc1ccccc1N=C2N1CCN(C)CC1 [OLANZAPINE],Compound NOT metabolized
